Values of other authors as cited in US10960001B2, “Opioid agonist / antagonist combination dosage forms” (KASHIV PHARMA LLC, priority 2017, dated 2021).

Legend:
[1] = 25° C.

In the case of C=CCN1CC[C@]23c4c5ccc(O)c4O[C@H]2C(=O)CC[C@@]3(O)[C@H]1C5 [Naloxone, naloxone], the oral bioavailability (after intake of therapeutic doses) is listed as 2-3% and the “bioavailability with oral ingestion” value (oral ingestion) is listed as “about 2%”.
For C=CCN1CC[C@]23c4c5ccc(O)c4O[C@H]2C(=O)CC[C@@]3(O)[C@H]1C5 [Naloxone free base, naloxone], the solubility in water [1] is given as “about 1.4 mg/mL”.
